Experimental data as given in patent US10011611B2, “Histone deacetylase inhibitors and methods for use thereof” (Reaction Biology Corp., priority 2015, dated 2018).

How the values were obtained:
Recombinant human HDAC6 = Recombinant human HDAC6 (Homo sapiens (Human), UniProt Q9UBN7); assay: HDAC6 biochemical fluorescent activity assay; settings: substrate Arg-His-Lys-Lys(Ac)
Human HDAC10 = Human HDAC10 (Homo sapiens (Human), UniProt Q969S8); assay: HDAC10 biochemical fluorescent activity assay; settings: substrate Arg-His-Lys-Lys(Ac)
Sequence of Human HDAC10 (Q969S8 1-481): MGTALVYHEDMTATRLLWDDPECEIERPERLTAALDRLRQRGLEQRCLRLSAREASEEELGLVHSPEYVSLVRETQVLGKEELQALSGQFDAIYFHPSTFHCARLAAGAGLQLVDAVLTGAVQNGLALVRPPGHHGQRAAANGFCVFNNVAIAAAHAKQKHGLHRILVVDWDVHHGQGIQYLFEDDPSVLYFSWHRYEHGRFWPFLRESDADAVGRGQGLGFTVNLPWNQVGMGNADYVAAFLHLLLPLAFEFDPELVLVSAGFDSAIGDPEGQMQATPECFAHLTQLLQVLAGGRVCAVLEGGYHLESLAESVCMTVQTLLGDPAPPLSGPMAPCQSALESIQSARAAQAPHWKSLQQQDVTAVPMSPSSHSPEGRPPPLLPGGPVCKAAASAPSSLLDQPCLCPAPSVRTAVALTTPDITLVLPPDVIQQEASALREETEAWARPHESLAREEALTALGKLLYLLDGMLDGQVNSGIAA

Human HDAC2 = Human HDAC2 (Homo sapiens (Human), UniProt Q92769); assay: HDAC2 biochemical fluorescent activity assay; settings: substrate Arg-His-Lys-Lys(Ac)
Sequence of Human HDAC2 (Q92769 whole entry): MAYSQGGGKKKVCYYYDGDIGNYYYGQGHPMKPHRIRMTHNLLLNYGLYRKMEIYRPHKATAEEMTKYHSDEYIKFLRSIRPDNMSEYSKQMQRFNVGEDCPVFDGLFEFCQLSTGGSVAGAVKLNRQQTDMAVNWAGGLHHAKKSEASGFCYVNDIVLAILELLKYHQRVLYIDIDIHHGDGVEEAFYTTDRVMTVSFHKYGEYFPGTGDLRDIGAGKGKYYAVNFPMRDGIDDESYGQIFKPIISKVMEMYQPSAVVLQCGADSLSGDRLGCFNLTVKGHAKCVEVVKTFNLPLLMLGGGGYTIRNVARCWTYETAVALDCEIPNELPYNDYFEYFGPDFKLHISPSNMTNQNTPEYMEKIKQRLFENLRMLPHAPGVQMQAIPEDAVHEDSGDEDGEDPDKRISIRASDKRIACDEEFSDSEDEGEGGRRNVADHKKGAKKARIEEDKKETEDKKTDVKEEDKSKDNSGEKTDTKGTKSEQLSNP

Human HDAC1 = Human HDAC1 (Homo sapiens (Human), UniProt Q13547); assay: HDAC1 biochemical fluorescent activity assay; settings: substrate Arg-His-Lys-Lys(Ac)
Sequence of Human HDAC1 (Q13547 whole entry): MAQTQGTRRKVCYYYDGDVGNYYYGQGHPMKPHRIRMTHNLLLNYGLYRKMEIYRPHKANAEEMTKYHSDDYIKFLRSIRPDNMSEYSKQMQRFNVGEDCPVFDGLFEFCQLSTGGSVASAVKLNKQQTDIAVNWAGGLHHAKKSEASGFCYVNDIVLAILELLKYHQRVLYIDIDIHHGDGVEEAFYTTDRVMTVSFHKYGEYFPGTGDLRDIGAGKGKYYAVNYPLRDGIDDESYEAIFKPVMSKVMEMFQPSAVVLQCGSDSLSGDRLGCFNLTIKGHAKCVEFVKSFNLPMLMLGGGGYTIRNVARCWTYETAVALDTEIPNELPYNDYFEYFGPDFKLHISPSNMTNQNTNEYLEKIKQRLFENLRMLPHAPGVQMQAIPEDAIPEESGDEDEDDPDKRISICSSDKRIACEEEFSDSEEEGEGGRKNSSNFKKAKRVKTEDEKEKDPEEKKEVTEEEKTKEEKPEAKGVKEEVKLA

Human HDAC8 = Human HDAC8 (Homo sapiens (Human), UniProt Q9BY41); assay: HDAC8 biochemical fluorescent activity assay; settings: substrate Arg-His-Lys(Ac)-Lys(Ac)
Sequence of Human HDAC8 (Q9BY41 whole entry): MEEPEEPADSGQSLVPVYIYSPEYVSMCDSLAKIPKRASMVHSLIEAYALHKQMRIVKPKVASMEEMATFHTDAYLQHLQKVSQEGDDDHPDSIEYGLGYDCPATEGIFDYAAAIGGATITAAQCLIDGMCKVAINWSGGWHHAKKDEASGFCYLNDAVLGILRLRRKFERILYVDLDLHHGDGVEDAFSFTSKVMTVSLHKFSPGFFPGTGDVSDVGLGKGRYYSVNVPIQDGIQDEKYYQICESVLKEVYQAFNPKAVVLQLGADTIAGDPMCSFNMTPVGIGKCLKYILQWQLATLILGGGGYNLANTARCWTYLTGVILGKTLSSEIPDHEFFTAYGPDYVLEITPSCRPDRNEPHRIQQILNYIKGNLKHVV

Human HDAC11 = Human HDAC11 (Homo sapiens (Human), UniProt Q96DB2); assay: HDAC11 biochemical fluorescent activity assay; settings: substrate Arg-His-Lys-Lys(Ac)
Sequence of Human HDAC11 (Q96DB2 whole entry): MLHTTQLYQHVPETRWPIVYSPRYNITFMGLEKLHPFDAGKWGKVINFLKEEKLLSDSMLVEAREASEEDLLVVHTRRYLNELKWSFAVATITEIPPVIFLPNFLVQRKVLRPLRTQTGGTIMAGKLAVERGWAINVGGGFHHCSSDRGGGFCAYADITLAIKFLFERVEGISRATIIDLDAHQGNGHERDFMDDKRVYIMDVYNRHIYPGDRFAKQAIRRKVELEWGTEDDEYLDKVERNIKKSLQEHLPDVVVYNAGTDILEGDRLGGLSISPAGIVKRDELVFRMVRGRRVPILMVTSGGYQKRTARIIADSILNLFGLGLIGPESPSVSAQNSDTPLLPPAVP

Human HDAC5 = Human HDAC5 (Homo sapiens (Human), UniProt Q9UQL6); assay: HDAC5 biochemical fluorescent activity assay
Sequence of Human HDAC5 (Q9UQL6 whole entry): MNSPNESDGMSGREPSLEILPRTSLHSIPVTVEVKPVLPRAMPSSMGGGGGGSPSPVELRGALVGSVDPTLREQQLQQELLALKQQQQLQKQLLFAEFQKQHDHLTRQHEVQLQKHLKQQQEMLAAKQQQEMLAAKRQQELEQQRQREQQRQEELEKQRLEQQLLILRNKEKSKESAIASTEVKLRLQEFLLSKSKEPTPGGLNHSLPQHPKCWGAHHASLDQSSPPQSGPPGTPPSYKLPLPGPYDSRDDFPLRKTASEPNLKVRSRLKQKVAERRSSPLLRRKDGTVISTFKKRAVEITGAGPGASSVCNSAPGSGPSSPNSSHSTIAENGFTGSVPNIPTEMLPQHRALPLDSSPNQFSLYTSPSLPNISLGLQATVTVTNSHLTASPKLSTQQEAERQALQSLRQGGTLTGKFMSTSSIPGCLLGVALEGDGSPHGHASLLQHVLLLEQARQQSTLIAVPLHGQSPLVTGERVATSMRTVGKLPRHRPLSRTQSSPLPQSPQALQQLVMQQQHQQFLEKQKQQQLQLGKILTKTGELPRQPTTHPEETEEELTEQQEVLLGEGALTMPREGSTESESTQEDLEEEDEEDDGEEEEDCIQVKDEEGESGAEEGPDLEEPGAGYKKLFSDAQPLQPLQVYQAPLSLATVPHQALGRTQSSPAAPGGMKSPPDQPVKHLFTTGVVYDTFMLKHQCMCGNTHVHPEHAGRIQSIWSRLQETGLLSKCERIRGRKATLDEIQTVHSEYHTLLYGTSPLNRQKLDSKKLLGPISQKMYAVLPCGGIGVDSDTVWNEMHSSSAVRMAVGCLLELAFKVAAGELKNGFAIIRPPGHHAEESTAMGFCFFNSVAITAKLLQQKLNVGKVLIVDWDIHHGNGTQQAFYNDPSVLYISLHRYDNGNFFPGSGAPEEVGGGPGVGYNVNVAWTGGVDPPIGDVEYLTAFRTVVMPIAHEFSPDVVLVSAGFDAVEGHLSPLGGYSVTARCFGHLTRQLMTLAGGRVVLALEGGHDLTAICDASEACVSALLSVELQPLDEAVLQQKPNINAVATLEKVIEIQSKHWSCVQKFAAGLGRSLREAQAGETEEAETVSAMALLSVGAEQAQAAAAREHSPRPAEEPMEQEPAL

Sequence of Recombinant human HDAC6 (Q9UBN7 whole entry): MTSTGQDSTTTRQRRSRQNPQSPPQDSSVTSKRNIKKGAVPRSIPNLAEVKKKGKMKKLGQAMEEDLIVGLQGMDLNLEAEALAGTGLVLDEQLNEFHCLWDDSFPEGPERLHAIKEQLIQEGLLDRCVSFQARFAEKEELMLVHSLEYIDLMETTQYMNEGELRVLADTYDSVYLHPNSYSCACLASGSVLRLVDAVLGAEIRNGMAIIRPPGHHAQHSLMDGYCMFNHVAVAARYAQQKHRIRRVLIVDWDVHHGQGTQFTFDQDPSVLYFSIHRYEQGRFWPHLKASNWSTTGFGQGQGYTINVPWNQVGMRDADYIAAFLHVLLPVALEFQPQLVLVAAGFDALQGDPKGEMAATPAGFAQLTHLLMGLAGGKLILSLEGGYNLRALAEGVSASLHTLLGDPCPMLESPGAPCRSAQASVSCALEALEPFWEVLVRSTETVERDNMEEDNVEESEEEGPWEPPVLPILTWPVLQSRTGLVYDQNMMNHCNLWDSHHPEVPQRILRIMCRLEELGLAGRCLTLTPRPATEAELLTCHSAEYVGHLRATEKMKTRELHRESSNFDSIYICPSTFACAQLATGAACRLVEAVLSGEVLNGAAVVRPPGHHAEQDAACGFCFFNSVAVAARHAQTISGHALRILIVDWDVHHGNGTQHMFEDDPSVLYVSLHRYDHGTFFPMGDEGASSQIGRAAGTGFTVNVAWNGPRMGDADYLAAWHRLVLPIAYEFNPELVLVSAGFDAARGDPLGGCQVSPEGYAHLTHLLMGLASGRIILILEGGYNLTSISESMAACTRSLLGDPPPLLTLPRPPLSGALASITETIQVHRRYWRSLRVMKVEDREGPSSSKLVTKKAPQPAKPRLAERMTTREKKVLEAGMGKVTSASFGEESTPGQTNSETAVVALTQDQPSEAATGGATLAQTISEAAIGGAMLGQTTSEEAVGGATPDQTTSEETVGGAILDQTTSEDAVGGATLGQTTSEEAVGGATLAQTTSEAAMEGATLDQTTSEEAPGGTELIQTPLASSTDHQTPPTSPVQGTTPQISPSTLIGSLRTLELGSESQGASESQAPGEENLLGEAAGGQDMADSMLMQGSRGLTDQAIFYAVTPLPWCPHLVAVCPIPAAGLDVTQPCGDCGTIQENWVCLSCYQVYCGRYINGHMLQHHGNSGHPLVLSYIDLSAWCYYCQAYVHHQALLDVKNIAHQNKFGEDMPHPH

O=C(NO)c1ccc(Cn2sc3ncccc3c2=O)cc1 [RBC-3001-A, N-hydroxy-4-((3-oxoisothiazolo[5,4-b]pyridin-2(3H)-yl)methyl)benzamide]
IC50 (Recombinant human HDAC6): 0.958 nM | IC50 (Human HDAC10): 4260 nM | IC50 (Human HDAC2): 5400 nM | IC50 (Human HDAC1): 175 nM | IC50 (Human HDAC8): 27.1 nM | IC50 (Human HDAC11): 2840 nM | IC50 (Human HDAC5): 508 nM
